Experimental data reported in patent US20230404922A1, “MICROSPHERE FORMULATIONS COMPRISING BTK INHIBITORS AND METHODS FOR MAKING AND USING THE SAME” (Oakwood Laboratories, LLC, priority 2021, published 2023).

What was measured:
[1] = cited from earlier work

- solubility in dichloromethane (DCM) (DCM): > 300 mg/g
- aqueous solubility (water): < 2.5 mg/g
SMILES: C=CC(=O)N1CCC[C@@H](n2nc(-c3ccc(Oc4ccccc4)cc3)c3c(N)ncnc32)C1 [ibrutinib, Ibrutinib]
- pKa [1]: about 3.74
